Results on 9 molecules are retold here after patent publication EP0299975B1, “COMPOSITION FOR ARRESTING ANGIOGENESIS AND CAPILLARY, CELL OR MEMBRANE LEAKAGE” (Angiogenics Limited, priority 1986, dated 1987).

The test system of data set [1] is angiogenesis. As to the kind of experiment: Steroids tested with heparin and heparin fragments against angiogenesis. From the text: Deltacortisone has not previously been disclosed for use in combination with heparin fragments generally, or pentosan polysulfate.
The conditions of data set [2]: cited from earlier work.
The test system of data set [3] is tumor angiogenesis. Particulars: hamster cheek pouch, under certain conditions; cited from earlier work.
Data set [4] has as its system transitional cell carcinoma. The data set can be described thus: Subcutaneous transitional cell carcinoma in mice, oral or injected therapy. It is filed as in vivo. As for the experimental part: 100 mice injected with live transitional cell carcinoma subcutaneously, and were grown to a maximum size of 2 cm prior to therapy. The mice were given SP₅₄ and hydrocortisone orally and by injection. The composition was orally administered with SP₅₄ at 0.06 mg/ml and hydrocortisone at 0.5 mg/ml in drinking water. In others the composition was injected with 0.66 mg/ml SP₅₄ and hydrocortisone at 3 mg/ml twice daily, 0.55 ml.

Consider `CC(C)CCC[C@@H](C)[C@H]1CC[C@H]2[C@@H]3CC=C4C[C@@H](O)CC[C@]4(C)[C@H]3CC[C@]12C` [cholesterol], for which, in data set [1], the overcoming angiogenesis result is given as “ineffective”. With `CC(=O)[C@H]1CC[C@H]2[C@@H]3CCC4=CC(=O)CC[C@]4(C)[C@H]3CC[C@]12C` [progesterone], the overcoming angiogenesis result in data set [1] is “ineffective”. Still for that read-out and setting: in the case of `CC(=O)[C@H]1CC[C@H]2[C@@H]3CC=C4C[C@@H](O)CC[C@]4(C)[C@H]3CC[C@]12C` [pregnenolone] it was “ineffective”.

On to `C[C@]12C=CC(=O)C=C1CC[C@@H]1[C@@H]2C(=O)C[C@@]2(C)[C@H]1CC[C@]2(O)C(=O)CO` [Deltacortisone], for which the water solubility result in data set [2] is listed as “not water soluble to a sufficiently substantial extent”. On to `C[C@H]1C[C@@H]2[C@H]([C@@H](O)C[C@@]3(C)[C@H]2CC[C@]3(O)C(=O)CO)[C@@]2(C)C=CC(=O)C=C12` [6 alpha-methyl-prednisolone], for which the “effect on tumor angiogenesis” value in data set [3] is reported as “partially suppressed”.

Consider `C[C@]12C[C@H](O)[C@H]3[C@@H](CCC4=CC(=O)CC[C@@]43C)[C@@H]1CC[C@@H]2C(=O)CO` [corticosterone], for which the overcoming angiogenesis result in data set [1] was “ineffective”. The same measure, in the same setting: in the case of `C[C@]12CC[C@H]3[C@@H](CCC4=CC(=O)CC[C@@]43C)[C@@H]1CC[C@@H]2O` [testosterone] it was “ineffective”. `C[C@]12CCC(=O)C=C1CC[C@@H]1[C@@H]2[C@@H](O)C[C@@]2(C)[C@H]1CC[C@]2(O)C(=O)CO` [hydrocortisone]: in data set [4] (SP₅₄ eliminated from treatment), the effect on tumor result was “regression of tumor”. For the same molecule, the lung metastasis entry in data set [4] (mice with transitional cell carcinoma after treatment) is reported as “found to have lung metastasis”. Consider `C[C@]12CCC(=O)C=C1CC[C@@H]1[C@@H]2CC[C@@]2(C)[C@H]1CC[C@]2(O)C(=O)CO` [cortexolone], for which, in data set [1], the overcoming angiogenesis entry was “ineffective”.
